Key:
Assay in all cases: concentration in plasma after dosing
rat [1] = settings: dosed: Bisphenol A, 0.6000000000 mg/kg, iv, male, Sprague-Dawley
rat [2] = settings: dosed: Bisphenol A, 0.6000000000 mg/kg, iv, male, Sprague-Dawley; remark: listed apart in the source
rat [3] = settings: male, Sprague-Dawley
rat [4] = settings: dosed: Dimethenamid, 5.0000000000 mg/kg, oral, male, Sprague-Dawley
rat [5] = settings: dosed: Dimethenamid, 1.0000000000 mg/kg, iv, male, Sprague-Dawley
rat [6] = settings: dosed: Dimethenamid, 5.0000000000 mg/kg, oral, male, Sprague-Dawley; remark: listed apart in the source
rat [7] = settings: dosed: Dimethenamid, 1.0000000000 mg/kg, iv, male, Sprague-Dawley; remark: listed apart in the source
rat [8] = settings: 8 h; dosed: Dimethenamid; 5.0000000000 mg/kg; oral; male; Sprague-Dawley
rat [9] = settings: dosed: Permethrin, 5.0000000000 mg/kg, oral, male, Sprague-Dawley
rat [10] = settings: dosed: Permethrin, 1.0000000000 mg/kg, iv, male, Sprague-Dawley
rat [11] = settings: dosed: Permethrin, 5.0000000000 mg/kg, oral, male, Sprague-Dawley; remark: listed apart in the source
rat [12] = settings: dosed: Permethrin, 5.0000000000 mg/kg, oral, male, Sprague-Dawley; remark: listed apart in the source
rat [13] = settings: dosed: Permethrin, 1.0000000000 mg/kg, iv, male, Sprague-Dawley; remark: listed apart in the source
rat [14] = settings: dosed: Permethrin, 5.0000000000 mg/kg, oral, male, Sprague-Dawley; remark: listed apart in the source
rat [15] = settings: dosed: Permethrin, 5.0000000000 mg/kg, oral, male, Sprague-Dawley; remark: listed apart in the source
rat [16] = settings: dosed: Propamocarb hydrochloride, 5.0000000000 mg/kg, oral, male, Sprague-Dawley
rat [17] = settings: dosed: Propamocarb hydrochloride, 1.0000000000 mg/kg, iv, male, Sprague-Dawley
rat [18] = settings: dosed: Propamocarb hydrochloride, 5.0000000000 mg/kg, oral, male, Sprague-Dawley; remark: listed apart in the source
rat [19] = settings: dosed: Propamocarb hydrochloride, 5.0000000000 mg/kg, oral, male, Sprague-Dawley; remark: listed apart in the source
rat [20] = settings: dosed: Propamocarb hydrochloride, 1.0000000000 mg/kg, iv, male, Sprague-Dawley; remark: listed apart in the source
rat [21] = settings: dosed: Resmethrin, 4.0000000000 mg/kg, oral, male, Sprague-Dawley
rat [22] = settings: dosed: Resmethrin, 0.8000000000 mg/kg, iv, male, Sprague-Dawley
rat [23] = settings: dosed: Resmethrin, 4.0000000000 mg/kg, oral, male, Sprague-Dawley; remark: listed apart in the source
rat [24] = settings: dosed: Resmethrin, 4.0000000000 mg/kg, oral, male, Sprague-Dawley; remark: listed apart in the source
rat [25] = settings: dosed: Resmethrin, 0.8000000000 mg/kg, iv, male, Sprague-Dawley; remark: listed apart in the source
rat [26] = settings: dosed: S-Bioallethrin, 0.8000000000 mg/kg, iv, male, Sprague-Dawley
rat [27] = settings: dosed: S-Bioallethrin, 0.8000000000 mg/kg, iv, male, Sprague-Dawley; remark: listed apart in the source
rat [28] = settings: dosed: S-Bioallethrin, 4.0000000000 mg/kg, oral, male, Sprague-Dawley
rat [29] = settings: dosed: S-Bioallethrin, 0.8000000000 mg/kg, iv, male, Sprague-Dawley; remark: listed apart in the source
rat [30] = settings: dosed: Simazine, 0.4000000000 mg/kg, iv, male, Sprague-Dawley
rat [31] = settings: dosed: Simazine, 2.0000000000 mg/kg, oral, male, Sprague-Dawley
rat [32] = settings: dosed: Simazine, 0.4000000000 mg/kg, iv, male, Sprague-Dawley; remark: listed apart in the source
rat [33] = settings: dosed: Simazine, 2.0000000000 mg/kg, oral, male, Sprague-Dawley; remark: listed apart in the source
rat [34] = settings: dosed: Simazine, 0.4000000000 mg/kg, iv, male, Sprague-Dawley; remark: listed apart in the source
rat [35] = settings: dosed: Simazine, 2.0000000000 mg/kg, oral, male, Sprague-Dawley; remark: listed apart in the source
rat [36] = settings: dosed: Triclosan, 1.0000000000 mg/kg, iv, male, Sprague-Dawley
rat [37] = settings: dosed: Triclosan, 1.0000000000 mg/kg, iv, male, Sprague-Dawley; remark: listed apart in the source
rat [38] = settings: dosed: Triclosan, 1.0000000000 mg/kg, iv, male, Sprague-Dawley; remark: listed apart in the source
rat [39] = settings: dosed: Triclosan, 1.0000000000 mg/kg, iv, male, Sprague-Dawley; remark: listed apart in the source
rat [40] = settings: dosed: Triclosan, 1.0000000000 mg/kg, iv, male, Sprague-Dawley; remark: listed apart in the source

CC(C)(c1ccc(O)cc1)c1ccc(O)cc1 [Bisphenol A]
concentration in plasma [ng/mL]
Settings | 0.5 h | 1 h | 5 min | 10 min
rat [1] | 94.3 | 30.7 | 310 | 151
rat [2] | 60.5 | 34.5 | 299 | 189

rat [3], dosed: Bisphenol A, 0.6000000000 mg/kg, iv
Settings | concentration in plasma [ng/mL]
0.5 h | 85.6
1 h | 29.2
5 min | 392
10 min | 302

COCC(C)N(C(=O)CCl)c1c(C)csc1C (stereo not drawn) [Dimethenamid]
concentration in plasma [ng/mL]
Settings | rat [4] | rat [5] | rat [6] | rat [7]
0.25 h | 0.6 | – | 1.8 | –
0.5 h | 0.5 | 20.9 | 1.4 | 14.9
1 h | – | 7.4 | 0.6 | 6.2
2 h | 0.6 | 2.1 | 0.7 | 1.9
4 h | 0.6 | 0.8 | 1 | 0.6
5 min | – | 193 | – | 91.9
8 h | 0.2 | – | 0.5 | –
10 min | – | 110 | – | 38.1
24 h | – | – | 0.2 | –
48 h | – | – | 0.3 | –
72 h | – | – | 0.3 | –

rat [3], dosed: Dimethenamid
Settings | concentration in plasma [ng/mL]
0.25 h, 5.0000000000 mg/kg, oral | 5.3
0.5 h, 1.0000000000 mg/kg, iv | 19.3
0.5 h, 5.0000000000 mg/kg, oral | 2
1 h, 1.0000000000 mg/kg, iv | 7
1 h, 5.0000000000 mg/kg, oral | 1.3
2 h, 1.0000000000 mg/kg, iv | 1.4
2 h, 5.0000000000 mg/kg, oral | 1.9
4 h, 1.0000000000 mg/kg, iv | 0.8
4 h, 5.0000000000 mg/kg, oral | 1.2
5 min, 1.0000000000 mg/kg, iv | 115
8 h, 1.0000000000 mg/kg, iv | 0.3
8 h, 5.0000000000 mg/kg, oral | 0.5
10 min, 1.0000000000 mg/kg, iv | 60.7
12 h, 5.0000000000 mg/kg, oral | 0.3
24 h, 5.0000000000 mg/kg, oral | 0.3
48 h, 5.0000000000 mg/kg, oral | 0.3
72 h, 5.0000000000 mg/kg, oral | 0.5

Settings | concentration in plasma [ng/mL]
rat [8] | 287

CC1(C)C(C=C(Cl)Cl)C1C(=O)OCc1cccc(Oc2ccccc2)c1 (stereo not drawn) [Permethrin]
concentration in plasma [ng/mL]
Settings | 0.25 h | 0.5 h | 1 h | 2 h | 4 h | 8 h | 10 min | 12 h
rat [9] | 21.3 | 15.7 | 18.3 | 21.5 | 28.4 | 15.1 | – | –
rat [10] | – | – | – | – | – | – | 3 | 2.9
rat [11] | – | 33.4 | 87.2 | 40.8 | 27.2 | – | – | –
rat [12] | – | 7.1 | 10.5 | 14.9 | 16 | 7.8 | – | 3.3
rat [13] | – | – | 9.5 | – | 2.1 | – | – | –
rat [14] | – | 8.1 | 15.2 | 15.9 | – | – | – | –
rat [15] | – | 37 | 54.2 | 62.2 | 48.5 | 12.3 | 10.1 | 1.5

concentration in plasma [ng/mL], rat [3], dosed: Permethrin
Settings | 0.5 h | 1 h | 2 h | 4 h | 8 h | 10 min | 12 h | 48 h
1.0000000000 mg/kg, iv | – | 6.7 | – | – | – | 15.9 | – | –
5.0000000000 mg/kg, oral | 44.4 | 64.2 | 71 | 53.2 | 26.1 | 15 | 8.4 | 5.2

CCCOC(=O)NCCCN(C)C.Cl [Propamocarb hydrochloride]
concentration in plasma [ng/mL]
Settings | rat [16] | rat [17] | rat [18] | rat [19] | rat [20]
0.25 h | 2.1 | 69.3 | 1.1 | 3.5 | 62.1
0.5 h | 1.5 | 35.3 | 0.7 | 1.7 | 25.5
1 h | 0.43 | 11 | 0.1 | 0.4 | 8.7
2 h | – | 1.7 | – | – | 0.5
5 min | – | 108 | – | – | 103

concentration in plasma [ng/mL], rat [3], dosed: Propamocarb hydrochloride
Settings | 0.25 h | 0.5 h | 1 h | 2 h | 5 min
1.0000000000 mg/kg, iv | 57.8 | 26.2 | 9.6 | 1 | 134
5.0000000000 mg/kg, oral | 8.1 | 4.9 | 1.6 | – | –

CC(C)=CC1C(C(=O)OCc2coc(Cc3ccccc3)c2)C1(C)C (stereo not drawn) [Resmethrin]
concentration in plasma [ng/mL]
Settings | 0.25 h | 0.5 h | 1 h | 2 h | 4 h | 5 min | 8 h | 10 min | 12 h
rat [21] | 17.4 | 15.8 | 17.7 | 10.6 | 4.2 | – | 4.6 | – | –
rat [22] | – | 9.1 | 4.1 | 1 | – | 52.7 | – | 25 | –
rat [23] | 7 | 10.7 | 39 | 12.8 | 2.3 | – | 4.7 | – | 1.8
rat [24] | 13.4 | 11.8 | 44.1 | 12.4 | 5.6 | – | 4 | – | –
rat [25] | – | 12.1 | 0.7 | 5.6 | – | 52.5 | – | 20.6 | –

concentration in plasma [ng/mL], rat [3], dosed: Resmethrin
Settings | 0.25 h | 0.5 h | 1 h | 2 h | 4 h | 5 min | 8 h | 10 min
0.8000000000 mg/kg, iv | – | 13.9 | 1.6 | 8.1 | – | 72.9 | – | 30.4
4.0000000000 mg/kg, oral | 12.6 | 37.2 | 32.8 | 13.5 | 13.7 | – | 6.1 | –

C=CCC1=C(C)[C@@H](OC(=O)[C@@H]2[C@@H](C=C(C)C)C2(C)C)CC1=O [S-Bioallethrin]
concentration in plasma [ng/mL]
Settings | 0.25 h | 0.5 h | 1 h | 2 h | 4 h | 5 min | 8 h | 10 min
rat [26] | – | 31.3 | 11 | 2.5 | 1.6 | – | – | 30.2
rat [27] | – | 13.1 | – | 6.7 | 1.9 | 60.4 | – | 43.5
rat [28] | 2.5 | 2.2 | 4.9 | – | – | – | – | –
rat [29] | – | 24.5 | 5.2 | 6.9 | 2.9 | – | 1.5 | 76.7

concentration in plasma [ng/mL], rat [3], dosed: S-Bioallethrin
Settings | 0.5 h | 1 h | 2 h | 4 h | 5 min
0.8000000000 mg/kg, iv | 2.7 | 3 | 3.4 | 1.6 | 19.2
4.0000000000 mg/kg, oral | 1.6 | 6 | 1.2 | – | –

CCNc1nc(Cl)nc(NCC)n1 [Simazine]
concentration in plasma [ng/mL]
Settings | 0.25 h | 0.5 h | 1 h | 2 h | 4 h | 5 min | 10 min
rat [30] | – | 34.8 | 5.3 | – | – | 127 | 95.5
rat [31] | 10.5 | 3.7 | 1.3 | 2.6 | 1.5 | – | –
rat [32] | – | 46.6 | 9.7 | 1.1 | – | 52 | 148
rat [33] | 68.5 | 23.2 | 5 | 1.2 | – | – | –
rat [34] | – | 23.2 | 4.5 | – | – | 63.7 | 60.4
rat [35] | 6.9 | 5 | 1 | 4.6 | 1 | – | –

concentration in plasma [ng/mL], rat [3], dosed: Simazine
Settings | 0.25 h | 0.5 h | 1 h | 5 min | 10 min
0.4000000000 mg/kg, iv | – | 43 | 3.7 | 91.6 | 101
2.0000000000 mg/kg, oral | 6.9 | 2.4 | – | – | –

Oc1cc(Cl)ccc1Oc1ccc(Cl)cc1Cl [Triclosan]
concentration in plasma [ng/mL]
Settings | 0.5 h | 1 h | 2 h | 5 min | 10 min | 72 h
rat [36] | 200 | – | – | 903 | 367 | –
rat [37] | 23.9 | 6.6 | – | 72.7 | 36.7 | –
rat [38] | 5.7 | 10.4 | 5 | 1 | 2.1 | 2.9
rat [39] | 24.8 | 6.4 | – | 270 | 129 | 6.2
rat [40] | 102 | 24.9 | – | 469 | 374 | –

rat [3], dosed: Triclosan, 1.0000000000 mg/kg, iv
Settings | concentration in plasma [ng/mL]
0.5 h | 39.6
5 min | 474
10 min | 211

Source: EPA's CvTdb concentration-time database (doi:10.1093/toxsci/kfy020)
